Assay results as given in patent publication US6204220A, “Substituted 2-oxo-3-alkynoic acids and methods of use thereof” (Rutgers, The State University of New Jersey, priority 1999, dated 2001).
Several values for one entry are separate records, joined by “and”; a condition that tells them apart may be missing. Equal entries are not always repeated.

Experiments:
resolved E1 = target: T1, resolved E1 (Escherichia coli, UniProt P0AFG8); assay: Non-oxidative formation of acetoin and acetolactate by resolved E1; format: biochemical, E. coli
T1 construct: made in house; host or cells: resolved from PDHc expressed in E. coli JRG1342
Description: Assay for the non-oxidative formation of acetoin and acetolactate by resolved E1. The reaction mixture contained in 0.8 mL of 50 mM KH2 PO4 buffer, pH 7.5: ThDP (1 mM); MgCl2 (2 mM); pyruvate (2 mM) and resolved E1 (0.04-0.1 mg). After 2 h at 37° C. the reaction was stopped by the addition of either 0.1 mL of 2.5 N NaOH (acetoin assay), or 0.02 mL of 6 N HCl (acetolactate assay), according to Kuwana et al. (1968). Tubes for acetolactate measurement were incubated for an additional 2 h at 37° C. to decarboxylate the acetolactate to acetoin. Acetoin was determined according to Westerfeld (1945). The activity is defined as nmoles of acetoin formed per min per mg protein.

E1 = target: T2, E1 (Escherichia coli, UniProt P0AFG8); assay: Quantification of sulfhydryl groups in E1 (DTNB titration); set-up: species or system E. coli
T2 construct: made in house; host or cells: resolved from PDHc expressed in E. coli JRG1342
Description: Quantification of the fraction of sulfhydryl groups in E1 modified by 2-oxo-3-butynoic acid. The concentration of titratable sulfhydryl groups was determined by treating samples (1 mL) containing E1 (3.02×10^-6 M) in 0.05 M KH2 PO4 buffer, pH 8.0 and 8 M urea, with small aliquots of 5,5'-dithiobis-(2-nitrobenzoic acid) from a 1 mM stock solution, and comparing the absorbencies at 412 nm with those obtained with freshly prepared cysteine solutions in the range 10×10^-6 -50×10^-6 M. Protein concentrations were determined by the Bio-Rad method with bovine serum albumin as standard.

E2-E3 subcomplex = target: T3, E2-E3 subcomplex (Escherichia coli, UniProt P06959+P0A9P0); assay: Preincubation of E2-E3 subcomplex with inhibitor, reconstitution with unmodified E1; format: biochemical, E. coli; conditions: up to 20 min preincubation, unmodified E1 added
T3 construct: made in house; host or cells: resolved from PDHc expressed in E. coli JRG1342
Description: Activity and related measurements on PDHc. The overall enzymatic reaction of the PDH complex was assayed using a Varian DMS 300 spectrophotometer or the Cobas Bio (Roche Diagnostics, Somerville, N.J.) automated centrifugal analyzer, monitoring the pyruvate-dependent reduction of NAD^+ at 340 nm. The reaction medium contained in 1 mL (DMS 300) or 0.25 mL (Cobas-Bio) test volume: 0.1 M Tris-HCl, pH 8.0; 1 mM MgCl2; 2 mM sodium pyruvate; 2.5 mM NAD^+; 0.052-0.2 mM coenzyme A; 0.2 mM ThDP; and 2.6 mM DTT at 27° C. The reaction was initiated either by adding enzyme to a mixture of all other components, or by adding CoA.
When the E2-E3 subcomplex was preincubated for different times (up to 20 min) with 2-oxo-3-butynoic acid, followed by dilution into a reaction mixture containing all components of the PDHc assay including unmodified E1 component, 100% of the activity could be reconstituted. In contrast, when resolved E1 was treated with inhibitors for different time periods before reconstitution with unmodified E2-E3 complex, a time-dependent decrease in the overall activity was observed (see FIG. 1B for resolved E1 reacted with 2-oxo-3-butynoic acid).

[1] = target: T4, C259N variant of 1-lip PDHc (Escherichia coli, UniProt P0AFG8, C260N); assay: Inactivation of C259N variant of 1-lip PDHc; format: biochemical, E. coli; conditions: butynoic acid at 1 mM
T4 construct: made in house; host or cells: E. coli JRG1342 (PDHc null), Ptac plasmid pGS596
Description: (§1) FIG. 6. Inactivation of 1-lip PDHc and its C259N and C259S variants by 2-oxo-3-butynoic acid. 1-lip PDHc (0.162 mg/mL) or the C259N and C259S variants of 1-lip PDHc (0.162 mg/mL) in 20 mM KH2 PO4 buffer, pH 7.5, containing 1 mM ThDP and 5 mM MgCl2 were incubated in the absence (curve 1: 1-lip PDHc and C259N variant) or in the presence of 1 mM of 2-oxo-3-butynoic acid (curve 2: the C259N variant; curve 3: 1-lip PDHc and the C259S variant) in a total volume 0.5 mL in the dark. At different times, aliquots of 50 μL were withdrawn and the overall activity was measured as described in FIG. 1A.
(§2) Bacterial strains and plasmids for PDHc. Derivatives of the PDHc null strain, E. coli JRG1342 contained Ptac expression plasmids encoding PDHc with E2 chains bearing three lipoyl domains (3-lip PDHc; pGS523, the wild type parental complex), or a single lipoyl domain in each E2 subunit (1-lip PDHc; pGS501), and variant 1-lip PDH complexes with mutations in the E1 gene leading to C259S (pGS457) and C259N (pGS596) substitutions (Machado et al., 1992; Machado, 1993).
(§3) Inactivation of 1-lip and 3-lip PDH complexes and resolved E1 component by 2-oxo-3-alkynoic acids. […]

[2] = target: T5, C259S variant of 1-lip PDHc (Escherichia coli, UniProt P0AFG8, C260S); assay: Inactivation of C259S variant of 1-lip PDHc; format: biochemical, E. coli; conditions: butynoic acid at 1 mM
T5 construct: made in house; host or cells: E. coli JRG1342 (PDHc null), Ptac plasmid pGS457
Description: as §1, §2, §3

[3] = E1 treated with 3.7 mM inhibitor, At = 11.5%
[4] = E1 with 11.5% overall activity remaining

T2 sequence (P0AFG8 2-887): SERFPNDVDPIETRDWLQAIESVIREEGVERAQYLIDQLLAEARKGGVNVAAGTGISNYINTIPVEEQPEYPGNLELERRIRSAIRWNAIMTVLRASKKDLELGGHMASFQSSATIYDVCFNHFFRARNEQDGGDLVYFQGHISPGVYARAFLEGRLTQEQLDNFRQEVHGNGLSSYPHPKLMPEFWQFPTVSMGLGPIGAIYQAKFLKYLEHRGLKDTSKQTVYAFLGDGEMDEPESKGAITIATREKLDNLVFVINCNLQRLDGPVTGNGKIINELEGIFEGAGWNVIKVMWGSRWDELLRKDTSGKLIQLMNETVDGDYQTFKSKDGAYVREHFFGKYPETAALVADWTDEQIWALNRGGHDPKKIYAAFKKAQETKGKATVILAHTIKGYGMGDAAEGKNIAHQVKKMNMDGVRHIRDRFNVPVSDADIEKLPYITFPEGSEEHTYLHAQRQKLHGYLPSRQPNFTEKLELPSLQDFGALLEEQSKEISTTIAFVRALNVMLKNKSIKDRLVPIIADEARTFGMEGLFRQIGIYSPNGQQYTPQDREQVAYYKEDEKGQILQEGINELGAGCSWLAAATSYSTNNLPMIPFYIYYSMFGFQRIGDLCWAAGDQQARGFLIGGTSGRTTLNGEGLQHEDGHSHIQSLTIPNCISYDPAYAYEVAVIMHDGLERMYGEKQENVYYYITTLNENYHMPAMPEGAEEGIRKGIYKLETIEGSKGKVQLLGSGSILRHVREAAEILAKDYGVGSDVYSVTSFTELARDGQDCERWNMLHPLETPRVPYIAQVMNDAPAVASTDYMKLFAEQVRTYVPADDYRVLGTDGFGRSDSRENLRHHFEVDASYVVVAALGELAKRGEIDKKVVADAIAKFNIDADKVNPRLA
T1 sequence (P0AFG8 2-887): as above
T4 sequence (P0AFG8 2-887 C260N): as the sequence (P0AFG8 2-887) above, with C259N counted along it
T5 sequence (P0AFG8 2-887 C260S): as the sequence (P0AFG8 2-887) above, with C259S counted along it
T3 sequence (P0A9P0 2-474): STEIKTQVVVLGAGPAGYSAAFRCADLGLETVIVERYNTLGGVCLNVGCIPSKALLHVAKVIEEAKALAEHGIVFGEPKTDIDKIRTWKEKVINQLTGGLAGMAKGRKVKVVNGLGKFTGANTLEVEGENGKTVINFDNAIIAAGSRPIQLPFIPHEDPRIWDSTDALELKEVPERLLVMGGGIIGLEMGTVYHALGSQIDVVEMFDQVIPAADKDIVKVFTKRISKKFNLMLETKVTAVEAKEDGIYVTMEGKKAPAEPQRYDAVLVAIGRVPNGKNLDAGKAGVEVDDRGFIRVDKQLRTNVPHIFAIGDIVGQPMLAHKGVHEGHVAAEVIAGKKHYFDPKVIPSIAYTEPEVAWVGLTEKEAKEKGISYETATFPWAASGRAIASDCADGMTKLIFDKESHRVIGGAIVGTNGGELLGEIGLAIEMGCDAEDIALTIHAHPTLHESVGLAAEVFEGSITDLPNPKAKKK
T3 sequence (P06959 whole entry): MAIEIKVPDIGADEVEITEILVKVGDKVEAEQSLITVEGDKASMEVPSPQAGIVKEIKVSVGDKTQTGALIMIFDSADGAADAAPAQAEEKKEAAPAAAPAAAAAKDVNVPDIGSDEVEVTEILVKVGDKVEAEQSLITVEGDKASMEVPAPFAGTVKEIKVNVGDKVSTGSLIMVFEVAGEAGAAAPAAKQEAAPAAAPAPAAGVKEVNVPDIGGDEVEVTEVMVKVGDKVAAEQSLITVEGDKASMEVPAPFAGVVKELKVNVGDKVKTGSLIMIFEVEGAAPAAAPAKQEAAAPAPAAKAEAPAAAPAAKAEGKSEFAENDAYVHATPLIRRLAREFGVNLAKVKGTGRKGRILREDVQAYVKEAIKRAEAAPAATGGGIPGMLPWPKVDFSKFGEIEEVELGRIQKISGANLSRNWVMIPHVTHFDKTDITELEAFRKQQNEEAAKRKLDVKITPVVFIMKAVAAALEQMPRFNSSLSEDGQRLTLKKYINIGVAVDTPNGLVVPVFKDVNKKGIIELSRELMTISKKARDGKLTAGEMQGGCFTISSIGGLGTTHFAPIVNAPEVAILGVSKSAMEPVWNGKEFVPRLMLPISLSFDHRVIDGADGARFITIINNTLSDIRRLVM

C#CC(=O)C(=O)O [2-oxo-3-butynoic acid, 2-Oxo-3-butynoic acid]
Acetoin production (resolved E1; [3]): 1.52 ± 0.08 nmol/min/mg protein | Acetolactate production (resolved E1; [3]): 0.51 ± 0.083 nmol/min/mg protein | Acetoin production relative to uninhibited E1 (resolved E1; [4]): 30% | Acetolactate production relative to uninhibited E1 (resolved E1; [4]): 36% | SH-groups remaining per monomer (E1; E1 reacted to residual activity of 10%, G-25, DTNB titration, 8 M urea): 3.83±0.18 SH-groups per monomer | SH-groups modified per monomer / subunit (E1; difference to untreated E1): 1.3 SH-groups per monomer and 1.30±0.35 SH-groups per monomer | activity reconstituted after preincubation of E2-E3 subcomplex with inhibitor (E2-E3 subcomplex): 100% | inactivation of C259N variant [1]: inactivated | inactivation of C259S variant [2]: inactivated
